Results on 15 molecules are retold here after US20090117140A1, “Human papilloma virus dominant CD4 T cell epitopes and uses thereof” (priority 2007, published 2009).

The subject of experiment [1] is E7 56-70 specific T-cell clones from subject 15-04. Description: Enzyme-linked immunospot assays defining the core sequence of the CD4 T-cell epitope. The conditions noted are these: for Response (spot-forming units) among the six overlapping 10-mer peptides: FIG. 3A, three of the four T-cell clones tested; for Response (spot-forming units) among the six overlapping 10-mer peptides / Number of spot-forming units, 15-mer, 11-mer, 10-mer and 9-mer peptides compared: peptide concentration 10 μM; for Number of spot-forming units, 15-mer, 11-mer, 10-mer and 9-mer peptides compared: FIG. 3B; for Number of spot-forming units with serially diluted peptides: FIG. 3C, clones #45 and #207.

Experiment [2] concerns Human Leukocyte Antigen class II molecule. Put plainly: Enzyme-linked immunospot assay identifying the restricting Human Leukocyte Antigen molecule. The conditions noted are these: allogeneic B-lymphoblastoid cell line cells sharing class II molecules with subject 15-04, E7 56-70 peptide used in the assay.
In experiment [3] the test system is Human Leukocyte Antigen molecule. Particulars: from the literature; cited from earlier work.
Experiment [4] has as its system T-cell clones from subject 15-04. Put plainly: Enzyme-linked immunospot assay for exogenous presentation (pulsed autologous dendritic cells). Particulars: FIG. 2B; clones #11, #207, #304; 2.5×10^3 dendritic cells per well.

Entries after “also recorded” stand apart in the source; their conditions may differ.

As to “CCKCDSTLRL (E7 58-67 peptide from immunodominant epitope region of Human Papilloma Virus 16 E7 protein)”, in experiment [1], the “Response (spot-forming units) among the six overlapping 10-mer peptides” value is given as “strongest response; also recorded: highest number of spot-forming units”; the “Number of spot-forming units, 15-mer, 11-mer, 10-mer and 9-mer peptides compared” value (shortened to “Number … 10-mer and 9-mer peptides compared”) is recorded as “Equally large numbers of spot-forming units; also recorded: equally high number of spot-forming units”; the “Number of spot-forming units with serially diluted peptides” value (shortened to “Number … with serially diluted peptides”) is “equivalent numbers of spot forming units; also recorded: equivalent numbers of spot-forming units”.
In the case of “CCKCDSTLRLC (E7 58-68 peptide from immunodominant epitope region of Human Papilloma Virus 16 E7 protein)”, the “Number … 10-mer and 9-mer peptides compared” value in experiment [1] is listed as “Equally large numbers of spot-forming units; also recorded: equally high number of spot-forming units”. The “Number … with serially diluted peptides” value in experiment [1] was “equivalent numbers of spot forming units; also recorded: equivalent numbers of spot-forming units”. Also, the Restriction element result in experiment [2] is “Human Leukocyte Antigen-DR17 molecule”; in experiment [2] (listed as HPV 16 E7 58-68), “Human Leukocyte Antigen-DR17 molecule”; in experiment [2] (listed as novel CD4 T-cell epitope) it was “Human Leukocyte Antigen-DR 17 molecule”; in experiment [2] (listed as novel HPV 16 E7 CD4 T-cell epitope) it was “Human Leukocyte Antigen-DR17 molecule”.
As to “CKCDSTLRLC (E7 59-68 peptide from immunodominant epitope region of Human Papilloma Virus 16 E7 protein)”, in experiment [1], the “Response (spot-forming units) among the six overlapping 10-mer peptides” value is “strongest responses; also recorded: highest number of spot-forming units”; the “Number … 10-mer and 9-mer peptides compared” value is reported as “Equally large numbers of spot-forming units; also recorded: equally high number of spot-forming units”; the “Number … with serially diluted peptides” value is “equivalent numbers of spot forming units; also recorded: equivalent numbers of spot-forming units”.
Regarding “E6 43-57: previously described HPV 18 E6 CD4 epitope (EVFEFAFKDLFVVYR; UniProt P06463 43-57, looked up, fragment)”, the “Restriction element of described epitope” value in experiment [3] is given as “Human Leukocyte Antigen-DRB1*15”.
For the molecule “E6 127-141: previously described HPV 16 E6 CD4 epitope (DKKQRFHNIRGRWTG; UniProt P03126 127-141, looked up, fragment)”, the “Restriction element of described epitope” value in experiment [3] is recorded as “Human Leukocyte Antigen-DRB1*01”.
On to “E7 35-50: previously described Human Papilloma virus-specific CD4 T-cell epitope of the E7 protein (EDEIDGPAGQAEPDRA; UniProt P03129 35-50, looked up, fragment)”, for which the “Restriction element of described epitope” value in experiment [3] was “Human Leukocyte Antigen-DQ2”.
Consider “E7 43-77: previously described Human Papilloma virus-specific CD4 T-cell epitope of the E7 protein (GQAEPDRAHYNIVTFCCKCDSTLRLCVQSTHVDIR; UniProt P03129 43-77, looked up, fragment)”, for which, in experiment [3], the “Restriction element of described epitope” value is given as “Human Leukocyte Antigen-DR3”.
Regarding “E7 50-62: previously described Human Papilloma virus-specific CD4 T-cell epitope of the E7 protein (AHYNIVTFCCKCD; UniProt P03129 50-62, looked up, fragment)”, the “Restriction element of described epitope” value in experiment [3] was “Human Leukocyte Antigen-DR15”.
Take “E7 59-67: 9-mer peptide of HPV 16 E7 contained in the 11-mer E7 58-68 (CKCDSTLRL; UniProt P03129 59-67, looked up, fragment)”: the “Number … 10-mer and 9-mer peptides compared” value in experiment [1] is on record as “negative repeatedly”.
For “E7 60-68: 9-mer peptide of HPV 16 E7 contained in the 11-mer E7 58-68 (KCDSTLRLC; UniProt P03129 60-68, looked up, fragment)”, the “Number … 10-mer and 9-mer peptides compared” value in experiment [1] is listed as “negative repeatedly”.
As to “E7 61-80: previously described Human Papilloma virus-specific CD4 T-cell epitope of the E7 protein (CDSTLRLCVQSTHVDIRTLE; UniProt P03129 61-80, looked up, fragment)”, the “Restriction element of described epitope” value in experiment [3] was “Human Leukocyte Antigen-DR9”.
For the molecule “EPDRAHYNIVTFCCKCDSTLRLCVQ (E7 46-70 peptide from immunodominant epitope region of Human Papilloma Virus 16 E7 protein) [HPV type 16 E7 46-70]”, the Restriction element entry in experiment [2] is recorded as “Human Leukocyte Antigen major histocompatibility complex class II molecule”.
In the case of “HPV 16 E7 71-85: previously described HPV 16 E7 epitope, 15 amino acids long (STHVDIRTLEDLLMG; UniProt P03129 71-85, looked up, fragment)”, the “Restriction element of described epitope” value in experiment [3] is on record as “Human Leukocyte Antigen-DQB1*02”.
On to “LEDLLMGTL (E7 79-87 control peptide from immunodominant epitope region of Human Papilloma Virus 16 E7 protein) [HPV 16 E7 79-87]”, for which, in experiment [3], the “Restriction element of described epitope” value is “Human Leukocyte Antigen-B69”.

B1: E7 protein: recombinant HPV 16 E7 protein pulsed to autologous mature dendritic cells (protein)
chain: MHGDTPTLHEYMLDLQPETTDLYCYEQLNDSSEEEDEIDGPAGQAEPDRAHYNIVTFCCKCDSTLRLCVQSTHVDIRTLEDLLMGTLGIVCPICSQKP
Turning to B1, in experiment [4], the “Response (interferon-γ secretion) of T-cell clones to pulsed autologous dendritic cells” value is recorded as “demonstrated interferon-γ secretion; also recorded: positive responses”.
